# In patent US5268468A, “N-nitrosophenoxybenzenepropanamine and N-1-chloroethyl carbamate intermediates” (Hoechst-Roussel Pharmaceuticals Incorporated, priority 1993, dated 1993):
# Structures can show the parent of a compound that is named as a salt.
# Test system: serotonin uptake in rat whole brain and hypothalamic synaptosomes
# Test: [3H]-Serotonin Uptake in Rat Whole Brain and Hypothalamic Synaptosomes
# Format: biochemical, rat (male CR Wistar)
# Details: rat whole brain or hypothalamic synaptosomes; 50 nM [3H]-5-hydroxytryptamine; 37° C., 5 minutes; pH 7.4; log-probit analysis; read-out: Inhibition of Serotonin Uptake (IC50)
# Protocol: [^3 H]-Serotonin Uptake in Rat Whole Brain
# A. Animals: Male CR Wistar rats (100-125 g).
# 1. Krebs-Henseleit Bicarbonate Buffer, pH 7.4 (KHBB):
# Make a 1 liter batch, containing the following salts.
# Potassium chloride 0.35 4.7
# Calcium chloride 0.14 1.3
# Aerate for 60 min. with 95% oxygen/5% carbon dioxide,
# 2. 0.32 M Sucrose: 21.9 g of sucrose, bring to 200 ml.
# 3. Serotonin creatinine sulfate 0.1 mM stock solution is
# made up in 0.01 N hydrochloric acid. This is used to
# dilute the specific activity of radiolabeled
# [H^3 ]-5-hydroxytryptamine (serotonin).
# 4. 5-[1,2-^3 H(N)]-Hydroxytryptamine creatinine sulfate
# (Serotonin), specific activity 20-30 Ci/mmol is used.
# The final desired concentration of
# [H^3 ]-5-hydroxytryptamine in the assay is 50 nM. The
# dilution factor is 0.8. Therefore, the KHBB is made up to
# contain 62.5 nM [H^3 ]-5-hydroxy-tryptamine.
# A) 56.1 μl of 0.1 mM 5-hydroxytryptamine
# *B) 0.64 nmole of 5-hydroxytryptamine
# 5. For most assays, a 1 mM stock solution of the test com-
# pound is made up in suitable solvent and serially diluted
# such that the final concentration in the assay ranges from
# 2 × 10^-8 to 2 × 10^-5 M. Seven concentrations
# for each assay. Higher or lower concentrations may be
# used depending on the potency of the compound.
# Male Wistar rats are decapitated and the brain rapidly
# removed. […]
# scintillation vials, and counted in 10 ml of Liquiscint […]
structure (smiles),measurement,value
CN(N)CCC(Oc1ccc(C(F)(F)F)cc1)c1ccccc1 (stereo not shown) [2-Methyl-2-[3-phenyl-3-[(4-trifluoromethyl)phenoxy]propyl]hydrazine maleate],IC50,1230 nM
